Assay results taken from ChEMBL document CHEMBL4321785, “Challenges and Opportunities for Therapeutics Targeting the Voltage-Gated Sodium Channel Isoform NaV1.7” (J Med Chem, 2019).

Assays:
[1] = biological target: Sodium channel protein type 2 subunit alpha (Homo sapiens, UniProt Q99250); experiment: Inhibition of human Nav1.2 expressed in HEK293 cells by electrophysiology assay; assay type: cell-based
[2] = biological target: Sodium channel protein type 9 subunit alpha (Rattus norvegicus, UniProt O08562); experiment: Inhibition of rat Nav1.7 expressed in HEK293 cells by electrophysiology assay; assay type: cell-based
[3] = biological target: Sodium channel protein type 4 subunit alpha (Homo sapiens, UniProt P35499); experiment: Inhibition of human Nav1.4 expressed in HEK293 cells by electrophysiology assay; assay type: cell-based
Homo sapiens [4] = species: Homo sapiens; experiment: Selectivity index, ratio of IC50 for inhibition of human Nav1.2 expressed in HEK293 cells by electrophysiology assay to IC50 for inhibition of human Nav1.7 expressed in HEK293 cells by electrophysiology assay; assay type: cell-based
Homo sapiens [5] = species: Homo sapiens; experiment: Selectivity index, ratio of IC50 for inhibition of human Nav1.5 expressed in HEK293 cells by electrophysiology assay to IC50 for inhibition of human Nav1.7 expressed in HEK293 cells by electrophysiology assay; assay type: cell-based
[6] = Ratio of unbound plasma concentration in mouse model of inherited erythromelalgia to IC50 for inhibition of human Nav1.7 expressed in HEK293 cells by electrophysiology assay; assay type: cell-based
Homo sapiens [7] = species: Homo sapiens; experiment: Selectivity index, ratio of IC50 for inhibition of human Nav1.1 expressed in HEK293 cells by electrophysiology assay to IC50 for inhibition of human Nav1.7 expressed in HEK293 cells by electrophysiology assay; assay type: cell-based
[8] = Ratio of unbound plasma concentration in mouse model of formalin-induced pain to IC50 for inhibition of mouse Nav1.7 expressed in HEK293 cells by electrophysiology assay; assay type: cell-based
Homo sapiens [9] = species: Homo sapiens; experiment: Selectivity index, ratio of IC50 for inhibition of human Nav1.6 expressed in HEK293 cells by electrophysiology assay to IC50 for inhibition of human Nav1.7 expressed in HEK293 cells by electrophysiology assay; assay type: cell-based
[10] = biological target: Sodium channel protein type 8 subunit alpha (Homo sapiens, UniProt Q9UQD0); experiment: Inhibition of human Nav1.6 expressed in HEK293 cells by electrophysiology assay; assay type: cell-based
[11] = biological target: Sodium channel protein type 5 subunit alpha (Homo sapiens, UniProt Q14524); experiment: Inhibition of human Nav1.5 expressed in HEK293 cells by electrophysiology assay; assay type: cell-based
Rattus norvegicus [12] = experiment: Analgesic activity in iv dosed rat model of CFA-induced pain; assay type: functional
Rattus norvegicus [13] = experiment: Analgesic activity in it dosed rat model of formalin-induced pain; assay type: functional
[14] = biological target: Sodium channel protein type 3 subunit alpha (Homo sapiens, UniProt Q9NY46); experiment: Inhibition of human Nav1.3 expressed in HEK293 cells by electrophysiology assay; assay type: cell-based
Rattus norvegicus [15] = experiment: Analgesic activity in it dosed rat model of CFA-induced pain by Hargreaves test; assay type: functional
[16] = biological target: Sodium channel protein type 1 subunit alpha (Homo sapiens, UniProt P35498); experiment: Inhibition of human Nav1.1 expressed in HEK293 cells by electrophysiology assay; assay type: cell-based
Rattus norvegicus [17] = experiment: Analgesic activity in it dosed rat model of CFA-induced pain; assay type: functional
Rattus norvegicus [18] = species: Rattus norvegicus
Rattus norvegicus [19] = species: Rattus norvegicus; remark: listed apart in the source
Rattus norvegicus [20] = species: Rattus norvegicus; remark: listed apart in the source

Sequence of Sodium channel protein type 2 subunit alpha (Q99250 whole entry): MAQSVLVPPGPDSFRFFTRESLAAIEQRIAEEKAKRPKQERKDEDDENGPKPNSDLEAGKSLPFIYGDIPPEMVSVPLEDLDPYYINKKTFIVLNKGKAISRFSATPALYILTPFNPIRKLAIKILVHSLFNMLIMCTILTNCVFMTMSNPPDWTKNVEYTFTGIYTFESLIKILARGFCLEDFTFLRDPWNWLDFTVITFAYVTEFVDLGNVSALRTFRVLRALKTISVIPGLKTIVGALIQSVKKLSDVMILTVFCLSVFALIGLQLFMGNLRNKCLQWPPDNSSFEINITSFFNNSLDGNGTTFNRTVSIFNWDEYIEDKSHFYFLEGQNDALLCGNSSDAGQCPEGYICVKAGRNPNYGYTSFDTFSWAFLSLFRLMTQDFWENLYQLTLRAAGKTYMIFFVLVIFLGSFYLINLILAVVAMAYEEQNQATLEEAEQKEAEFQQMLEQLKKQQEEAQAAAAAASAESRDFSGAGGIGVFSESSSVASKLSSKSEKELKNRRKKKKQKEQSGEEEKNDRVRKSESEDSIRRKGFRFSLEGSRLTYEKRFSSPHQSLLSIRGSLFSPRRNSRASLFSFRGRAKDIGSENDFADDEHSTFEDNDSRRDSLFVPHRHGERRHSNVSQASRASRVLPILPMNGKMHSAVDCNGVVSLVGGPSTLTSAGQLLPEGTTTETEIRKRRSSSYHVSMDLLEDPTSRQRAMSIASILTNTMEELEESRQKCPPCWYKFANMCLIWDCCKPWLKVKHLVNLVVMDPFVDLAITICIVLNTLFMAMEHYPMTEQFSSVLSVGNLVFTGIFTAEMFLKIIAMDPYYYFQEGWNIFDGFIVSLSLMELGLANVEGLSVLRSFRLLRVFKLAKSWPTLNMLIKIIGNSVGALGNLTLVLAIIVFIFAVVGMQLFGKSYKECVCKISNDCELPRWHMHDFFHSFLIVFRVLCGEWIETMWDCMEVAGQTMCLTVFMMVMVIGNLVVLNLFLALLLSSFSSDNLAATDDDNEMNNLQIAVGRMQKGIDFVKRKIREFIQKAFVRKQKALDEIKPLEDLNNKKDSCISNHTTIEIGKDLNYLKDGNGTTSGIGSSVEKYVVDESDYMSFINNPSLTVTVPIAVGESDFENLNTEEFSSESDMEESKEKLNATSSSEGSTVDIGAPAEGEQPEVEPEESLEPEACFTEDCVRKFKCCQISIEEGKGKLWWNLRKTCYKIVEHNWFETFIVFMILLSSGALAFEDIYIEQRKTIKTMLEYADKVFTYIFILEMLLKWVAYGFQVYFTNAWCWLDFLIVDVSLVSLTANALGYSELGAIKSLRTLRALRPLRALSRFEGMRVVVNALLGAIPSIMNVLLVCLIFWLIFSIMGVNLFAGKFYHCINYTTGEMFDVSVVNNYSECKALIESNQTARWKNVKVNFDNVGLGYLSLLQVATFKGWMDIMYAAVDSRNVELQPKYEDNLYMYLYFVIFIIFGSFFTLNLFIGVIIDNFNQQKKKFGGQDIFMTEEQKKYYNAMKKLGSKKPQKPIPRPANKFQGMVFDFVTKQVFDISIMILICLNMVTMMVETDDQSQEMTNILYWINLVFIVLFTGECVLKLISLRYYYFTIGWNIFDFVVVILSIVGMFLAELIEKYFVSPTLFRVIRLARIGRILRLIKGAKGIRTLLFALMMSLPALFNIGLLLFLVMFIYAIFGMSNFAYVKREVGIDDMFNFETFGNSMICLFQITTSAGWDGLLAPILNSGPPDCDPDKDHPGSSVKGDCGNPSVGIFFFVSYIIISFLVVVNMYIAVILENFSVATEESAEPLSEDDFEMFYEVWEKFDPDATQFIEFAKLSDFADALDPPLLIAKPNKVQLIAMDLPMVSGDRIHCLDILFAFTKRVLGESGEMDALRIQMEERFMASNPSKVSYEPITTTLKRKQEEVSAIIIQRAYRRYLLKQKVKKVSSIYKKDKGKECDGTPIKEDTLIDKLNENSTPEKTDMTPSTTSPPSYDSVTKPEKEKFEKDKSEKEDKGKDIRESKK
Sequence of Sodium channel protein type 4 subunit alpha (P35499 whole entry): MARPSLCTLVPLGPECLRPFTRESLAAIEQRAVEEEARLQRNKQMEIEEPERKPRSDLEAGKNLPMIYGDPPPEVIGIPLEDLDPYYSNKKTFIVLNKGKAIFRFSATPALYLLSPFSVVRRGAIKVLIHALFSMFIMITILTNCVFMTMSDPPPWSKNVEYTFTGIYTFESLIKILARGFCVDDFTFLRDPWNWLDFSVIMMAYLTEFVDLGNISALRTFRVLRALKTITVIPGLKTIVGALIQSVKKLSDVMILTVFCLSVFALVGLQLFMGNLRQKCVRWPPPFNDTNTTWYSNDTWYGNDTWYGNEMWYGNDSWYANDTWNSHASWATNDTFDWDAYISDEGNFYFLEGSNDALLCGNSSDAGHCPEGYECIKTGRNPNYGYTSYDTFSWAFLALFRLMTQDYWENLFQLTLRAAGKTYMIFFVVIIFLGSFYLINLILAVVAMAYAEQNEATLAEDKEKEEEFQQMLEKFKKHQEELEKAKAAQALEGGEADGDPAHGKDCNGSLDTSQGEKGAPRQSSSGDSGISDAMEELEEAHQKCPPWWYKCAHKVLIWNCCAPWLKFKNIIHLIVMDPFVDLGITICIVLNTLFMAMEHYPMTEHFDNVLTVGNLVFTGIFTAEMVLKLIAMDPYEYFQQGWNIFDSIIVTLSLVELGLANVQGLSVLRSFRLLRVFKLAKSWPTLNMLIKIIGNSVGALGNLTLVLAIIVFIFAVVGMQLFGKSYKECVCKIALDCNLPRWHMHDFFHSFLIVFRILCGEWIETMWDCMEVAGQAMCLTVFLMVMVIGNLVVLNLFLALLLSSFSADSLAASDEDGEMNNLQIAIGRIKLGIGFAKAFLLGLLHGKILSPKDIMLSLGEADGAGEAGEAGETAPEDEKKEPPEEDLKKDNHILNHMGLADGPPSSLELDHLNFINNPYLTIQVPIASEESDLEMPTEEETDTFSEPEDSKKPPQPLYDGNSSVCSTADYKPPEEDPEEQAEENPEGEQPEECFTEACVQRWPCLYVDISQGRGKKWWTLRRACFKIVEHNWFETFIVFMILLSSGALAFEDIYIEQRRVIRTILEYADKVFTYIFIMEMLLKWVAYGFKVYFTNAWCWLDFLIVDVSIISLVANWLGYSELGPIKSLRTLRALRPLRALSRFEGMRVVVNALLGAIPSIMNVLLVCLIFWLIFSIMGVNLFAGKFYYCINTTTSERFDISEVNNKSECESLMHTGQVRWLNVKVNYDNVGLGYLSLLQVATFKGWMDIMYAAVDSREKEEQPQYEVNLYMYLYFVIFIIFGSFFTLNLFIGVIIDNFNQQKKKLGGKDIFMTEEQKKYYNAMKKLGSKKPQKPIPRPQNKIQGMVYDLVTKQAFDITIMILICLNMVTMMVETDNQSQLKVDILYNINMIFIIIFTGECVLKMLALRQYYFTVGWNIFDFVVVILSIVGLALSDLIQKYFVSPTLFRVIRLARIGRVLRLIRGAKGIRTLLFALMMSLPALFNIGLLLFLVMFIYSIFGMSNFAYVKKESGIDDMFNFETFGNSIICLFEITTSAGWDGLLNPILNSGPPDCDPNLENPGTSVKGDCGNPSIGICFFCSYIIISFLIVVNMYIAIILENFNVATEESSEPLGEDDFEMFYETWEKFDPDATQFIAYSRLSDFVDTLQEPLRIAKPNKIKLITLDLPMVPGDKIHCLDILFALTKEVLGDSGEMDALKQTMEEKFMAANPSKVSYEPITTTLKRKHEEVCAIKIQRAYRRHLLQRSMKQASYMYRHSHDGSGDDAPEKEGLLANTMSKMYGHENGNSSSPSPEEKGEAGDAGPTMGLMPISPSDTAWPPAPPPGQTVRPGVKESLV

CSCC[C@@H]1NC(=O)[C@H](Cc2ccc(O)cc2)NC(=O)[C@H](CCCNC(=N)N)NC(=O)[C@@H](NC(=O)[C@@H](N)CC(=O)O)CSSC[C@@H]2NC(=O)[C@@H]3CSSC[C@@H](C(=O)N[C@@H](C)C(=O)N[C@@H](Cc4c[nH]c5ccccc45)C(=O)N[C@@H](CC(=O)O)C(=O)N[C@@H](Cc4ccccc4)C(=O)N[C@H](C(=O)N[C@@H](Cc4ccccc4)C(=O)N[C@H](C(=O)O)[C@@H](C)O)[C@@H](C)O)NC(=O)[C@H](Cc4ccc(O)cc4)NC(=O)[C@H](CCCCN)NC(=O)[C@H](CCSC)NC(=O)[C@H](CCCCN)NC(=O)[C@H](CCCNC(=N)N)NC(=O)[C@H](CCCCN)NC(=O)[C@H](CSSC[C@H](NC(=O)[C@H](CC(=O)O)NC(=O)CNC(=O)[C@H](Cc4ccccc4)NC1=O)C(=O)N[C@@H](CCC(=O)O)C(=O)N[C@@H](CCCCN)C(=O)N[C@@H](CC(=O)O)C(=O)N[C@@H](CCC(=O)O)C(=O)N[C@@H](CC(=O)O)C(=O)N3)NC(=O)CNC(=O)[C@H](CC(C)C)NC(=O)[C@H](Cc1cnc[nH]1)NC(=O)[C@H](CCCCN)NC2=O
IC50 [1]: 0.12 µM
IC50 [2]: 0.0015 µM
IC50 [3]: 0.14 µM

CC1(COc2cc(F)c(C(=O)NS(=O)(=O)C3CC3)cc2C2CC2)CCC2(CC1)CC2
Ratio IC50 (Homo sapiens [4]): 3.3
Ratio IC50 (Homo sapiens [5]): 83
Ratio [6]: 5.2
Ratio IC50 (Homo sapiens [7]): 10
Ratio [8]: 22
Ratio IC50 (Homo sapiens [9]): 63

CSCC[C@@H]1NC(=O)CNC(=O)[C@H](CCC(=O)O)NC(=O)[C@@H]2CSSC[C@H](NC(=O)[C@@H](N)Cc3ccc(O)cc3)C(=O)N[C@@H](CCC(N)=O)C(=O)N[C@@H](CCCCN)C(=O)N[C@@H](Cc3c[nH]c4ccccc34)C(=O)N[C@@H](CCSC)C(=O)N[C@@H](Cc3c[nH]c4ccccc34)C(=O)N[C@@H]([C@@H](C)O)C(=O)N[C@H]3CSSC[C@H](NC(=O)[C@H](C(C)C)NC1=O)C(=O)N[C@@H](CCCNC(=N)N)C(=O)N[C@@H](CC(C)C)C(=O)N[C@@H](Cc1c[nH]c4ccccc14)C(=O)N[C@H](C(=O)N[C@@H](CCCCN)C(=O)N[C@@H](CCCCN)C(=O)N[C@@H](CCCCN)C(=O)N[C@@H](CC(C)C)C(=O)N[C@@H](Cc1c[nH]c4ccccc14)C(=O)O)CSSC[C@H](NC(=O)[C@H](CCCCN)NC(=O)[C@H](CCCNC(=N)N)NC(=O)[C@H](CCC(=O)O)NC(=O)[C@H](CO)NC(=O)[C@H](CC(=O)O)NC3=O)C(=O)N2
IC50 [10]: 0.032 µM
IC50 [11]: 0.4 µM
ED (Rattus norvegicus [12]): 100 µg/kg
IC50 [1]: 0.079 µM
ED (Rattus norvegicus [13]): 2 µg
IC50 [14]: 0.025 µM
ED (Rattus norvegicus [15]): 2 µg
IC50 [3]: 0.079 µM
IC50 [16]: 0.016 µM
ED (Rattus norvegicus [17]): 10 µg/kg

O=C(NS(=O)(=O)N1CCC1)c1cc(C2CC2)c(OCC23CC4CC(CC(C4)C2)C3)cc1F
IC50 [10]: 0.48 µM
IC50 [11]: 0.049 µM
IC50 [1]: 0.02 µM

NC1=N[C@H](O)[C@H]2[C@H]3O[C@]4(O)O[C@@H]([C@@H](O)[C@@]2(N1)[C@@H]4O)[C@]3(O)CO
ED (Rattus norvegicus [18]): 1 to 3 µg/kg
ED (Rattus norvegicus [19]): 1 µg/kg
ED (Rattus norvegicus [20]): 6 µg/kg
